In US12110279B2, “Triazolones, tetrazolones, and imidazolones, or their salts, and pharmaceutical compositions comprising the same” (Yuhan Corporation, priority 2021, dated 2024) one finds IC50 data, which are given here for ten compounds.

Holding throughout (format): biochemical
The target of one test is T1, recombinant human VAP-1 (Homo sapiens, UniProt Q16853).
T1 construct: purchased R&D systems
T1 sequence (Q16853 1-763): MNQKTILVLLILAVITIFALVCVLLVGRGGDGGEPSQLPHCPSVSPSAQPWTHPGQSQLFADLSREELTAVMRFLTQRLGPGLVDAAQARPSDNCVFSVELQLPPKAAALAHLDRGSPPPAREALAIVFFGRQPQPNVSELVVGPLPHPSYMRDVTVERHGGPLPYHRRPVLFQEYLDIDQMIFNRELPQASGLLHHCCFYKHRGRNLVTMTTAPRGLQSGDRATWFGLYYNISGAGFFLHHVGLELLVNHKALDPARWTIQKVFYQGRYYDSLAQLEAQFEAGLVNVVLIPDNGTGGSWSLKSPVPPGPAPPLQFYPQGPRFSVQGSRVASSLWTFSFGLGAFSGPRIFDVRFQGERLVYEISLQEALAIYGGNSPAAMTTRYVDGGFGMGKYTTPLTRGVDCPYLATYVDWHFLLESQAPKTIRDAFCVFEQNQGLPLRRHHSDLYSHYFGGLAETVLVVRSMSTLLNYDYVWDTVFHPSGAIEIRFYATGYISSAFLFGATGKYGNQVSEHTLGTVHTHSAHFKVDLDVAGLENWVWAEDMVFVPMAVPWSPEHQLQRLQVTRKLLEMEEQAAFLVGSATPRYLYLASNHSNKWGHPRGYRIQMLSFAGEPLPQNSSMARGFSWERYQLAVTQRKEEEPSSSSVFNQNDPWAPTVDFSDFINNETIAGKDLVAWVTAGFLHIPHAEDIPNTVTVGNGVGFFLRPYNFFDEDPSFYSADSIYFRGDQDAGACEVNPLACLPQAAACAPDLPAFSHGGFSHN
The test can be described thus: Amplex Red HRP-coupled amine oxidase activity evaluation, recombinant human VAP-1. To be noted: substrate 1 mM benzylamine; 30 min preincubation at 37° C.; read-out: Inhibitory Activity (IC50, nM) human VAP-1. As to the method: (§1) The compounds according to the present technology were evaluated in terms of activity on recombinant human VAP-1 (R&D systems) by measuring the level of hydrogen peroxide in horseradish peroxidase (HRP)-coupled reaction using Amplex Red Hydrogen Peroxide Assay Kit (Molecular Probes, Invitrogen, USA). The experiment was carried out at room temperature using benzylamine as a substrate. In the HRP-coupled reaction, hydrogen peroxide oxidation of 10-acetyl-3,7-dihydroxyphenoxazine (Amplex Red reagent) produces resorufin, which is a highly fluorescent compound. Briefly, the test compound was dissolved in dimethyl sulfoxide (DMSO) at a concentration of 20 mM. The dose-response assessment was made by 1:3 serial dilution in DMSO, thereby creating an 8-point curve. The concentration of the upper part was controlled according to the efficacy of the compounds, followed by dilution with a reaction buffer solution to obtain a final DMSO concentration of less than 1%. To each well of a 96 black well plate, human VAP-1 purified in 50 mM sodium phosphate buffer solution (pH7.4) was added. The test compounds dissolved in DMSO were incubated with the human VAP-1 enzymes at 37° C. for 30 minutes. After 30-minute incubation, each well was added with a reaction mixture containing 200 uM Amplex Red reagent prepared from 50 mM sodium phosphate buffer solution (pH 7.4), 1 mM benzylamine, and 1 U/mL HRP. Fluorescence intensity was measured at several time points during 1-2 hours using a microplate reader (Flexstation3, Molecular Devices) under the wavelength condition exciting at 544 nm and reading the emission at 590 nm. The inhibitory effect of the compounds was measured as a decrease (%) in the signal rate as compared to the control group without any inhibitor (only diluted DMSO). Data was fixed to a logistic model with four variables and IC50 value was calculated using GraphPad Prism program.

The target in test [1] is T2, recombinant human DAO (diamine oxidase) (Homo sapiens, UniProt P19801).
T2 construct: purchased R&D systems
T2 sequence (P19801 20-751): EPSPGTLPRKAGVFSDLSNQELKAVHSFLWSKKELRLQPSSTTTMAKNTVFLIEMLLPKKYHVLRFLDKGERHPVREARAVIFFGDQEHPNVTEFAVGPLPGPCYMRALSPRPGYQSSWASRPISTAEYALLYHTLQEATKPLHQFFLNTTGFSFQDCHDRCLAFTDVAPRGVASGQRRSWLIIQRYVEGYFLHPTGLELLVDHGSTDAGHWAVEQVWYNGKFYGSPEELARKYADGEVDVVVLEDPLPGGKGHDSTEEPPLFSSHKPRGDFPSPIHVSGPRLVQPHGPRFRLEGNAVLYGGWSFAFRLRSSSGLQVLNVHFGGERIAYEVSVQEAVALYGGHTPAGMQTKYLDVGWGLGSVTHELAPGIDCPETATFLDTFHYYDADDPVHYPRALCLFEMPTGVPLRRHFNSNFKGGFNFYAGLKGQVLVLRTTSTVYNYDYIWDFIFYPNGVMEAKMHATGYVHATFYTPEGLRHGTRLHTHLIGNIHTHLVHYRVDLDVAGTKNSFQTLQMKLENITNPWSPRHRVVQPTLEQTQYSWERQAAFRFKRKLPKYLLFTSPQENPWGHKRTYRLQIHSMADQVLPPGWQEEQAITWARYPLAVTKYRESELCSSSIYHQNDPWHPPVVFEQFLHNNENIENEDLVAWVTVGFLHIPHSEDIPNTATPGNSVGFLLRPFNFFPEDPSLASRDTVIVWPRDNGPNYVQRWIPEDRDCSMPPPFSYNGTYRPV
Description: Amplex Red HRP-coupled amine oxidase activity evaluation, recombinant human DAO. Here is the method:
[The source words this procedure for another target and says it was used here with some conditions changed.] as §1

For test [2], the target named is T3, recombinant human MAO-B (monoamine oxidase-B) (Homo sapiens, UniProt P27338).
T3 construct: purchased Sigma-Aldrich
T3 sequence (P27338 1-520): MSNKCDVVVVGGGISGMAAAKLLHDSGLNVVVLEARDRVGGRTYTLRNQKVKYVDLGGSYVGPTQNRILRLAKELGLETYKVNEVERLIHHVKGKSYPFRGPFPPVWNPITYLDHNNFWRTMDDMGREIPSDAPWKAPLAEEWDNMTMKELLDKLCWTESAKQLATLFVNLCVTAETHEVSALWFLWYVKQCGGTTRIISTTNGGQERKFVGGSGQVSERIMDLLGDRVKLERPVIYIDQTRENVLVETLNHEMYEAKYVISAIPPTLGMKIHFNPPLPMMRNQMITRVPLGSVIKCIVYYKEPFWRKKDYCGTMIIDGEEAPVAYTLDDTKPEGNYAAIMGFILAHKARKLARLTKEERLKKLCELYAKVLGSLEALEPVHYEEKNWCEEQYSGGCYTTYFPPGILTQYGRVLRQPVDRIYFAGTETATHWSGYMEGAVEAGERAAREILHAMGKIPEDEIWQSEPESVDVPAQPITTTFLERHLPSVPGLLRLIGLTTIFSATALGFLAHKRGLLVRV
Description: Amplex Red HRP-coupled amine oxidase activity evaluation, recombinant human MAO-B. To be noted: substrate 1 mM benzylamine; read-out: Inhibitory Activity (IC50, nM) MAO-B. As to the method: [The source words this procedure for another target and says it was used here with some conditions changed.] as §1

The target in test [3] is T4, recombinant human MAO-A (monoamine oxidase-A) (Homo sapiens, UniProt P21397).
T4 construct: purchased Sigma-Aldrich
T4 sequence (P21397 1-527): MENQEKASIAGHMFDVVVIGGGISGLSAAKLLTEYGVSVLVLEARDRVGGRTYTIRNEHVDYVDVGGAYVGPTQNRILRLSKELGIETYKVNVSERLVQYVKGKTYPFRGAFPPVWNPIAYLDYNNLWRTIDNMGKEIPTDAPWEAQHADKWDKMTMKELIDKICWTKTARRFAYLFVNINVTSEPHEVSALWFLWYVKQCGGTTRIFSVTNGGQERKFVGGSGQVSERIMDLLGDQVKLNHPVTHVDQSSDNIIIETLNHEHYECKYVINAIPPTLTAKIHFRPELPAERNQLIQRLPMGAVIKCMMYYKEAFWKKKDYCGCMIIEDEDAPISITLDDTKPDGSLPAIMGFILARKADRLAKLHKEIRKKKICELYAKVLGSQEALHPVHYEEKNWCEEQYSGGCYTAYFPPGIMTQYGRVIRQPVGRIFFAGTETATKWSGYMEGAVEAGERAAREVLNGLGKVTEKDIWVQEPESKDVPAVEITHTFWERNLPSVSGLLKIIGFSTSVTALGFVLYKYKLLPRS
The test can be described thus: Amplex Red HRP-coupled amine oxidase activity evaluation, recombinant human MAO-A. To be noted: substrate 0.5 mM tyramine; read-out: Inhibitory Activity (IC50, nM) MAO-A. As to the method:
[The source words this procedure for another target and says it was used here with some conditions changed.] as §1

Where [4] appears, read: substrate 1 mM putrescine, read-out: Inhibitory Activity (IC50, nM) DAO.

Where a name gives a salt, the structure may show the parent alone. Read-outs that look alike come from different tables or passages of the source.

As to `CCn1cc(-c2cccc(Cn3nnn(CC(CN)=C(F)F)c3=O)c2)cn1` [Example 32, 1-[2-(aminomethyl)-3,3-difluoro-allyl]-4-[[3-(1-ethylpyrazol-4-yl)phenyl]methyl]tetrazol-5-one trifluoroacetate], the IC50 was 0.4 nM at recombinant human VAP-1, 811 nM in test [1] (setting [4]), 2320 nM in test [2] and more than 100000 nM in test [3].

Consider `CCn1cc(-c2cccc(-n3nnn(CC(CN)=C(F)F)c3=O)c2)ccc1=O` [Example 12, 5-[3-[4-[2-(aminomethyl)-3,3-difluoro-allyl]-5-oxo-tetrazol-1-yl]phenyl]-1-ethyl-pyridin-2-one di-trifluoroacetate], for which the IC50 was 0.9 nM on recombinant human VAP-1, 10 nM in test [1], more than 100000 nM in test [2] and more than 100000 nM in test [3].

With `CCn1cc(-c2ccc(Cn3c(C)nn(CC(CN)=C(F)F)c3=O)s2)cn1` [Example 1, 2-[2-(aminomethyl)-3,3-difluoro-allyl]-4-[[5-(1-ethylpyrazol-4-yl)-2-thienyl]methyl]-5-methyl-1,2,4-triazol-3-one trifluoroacetate], the IC50 on recombinant human VAP-1 is 1.7 nM; in test [1] (setting [4]) it was more than 100000 nM; in test [2], more than 100000 nM; in test [3], more than 100000 nM.

For `CCn1cc(-c2ccc(Cn3ccn(CC(CN)=C(F)F)c3=O)s2)ccc1=O` [Example 50, 5-[5-[[3-[2-(aminomethyl)-3,3-difluoro-allyl]-2-oxo-imidazol-1-yl]methyl]-2-thienyl]-1-ethyl-pyridin-2-one trifluoroacetate], the IC50 on recombinant human VAP-1 was more than 100 nM; in test [1] (setting [4]) it was 8.3 nM; in test [2] it was more than 100000 nM; in test [3], more than 100000 nM.

Turning to `Cc1nn(CC(CN)=C(F)F)c(=O)n1Cc1ccc(-c2ccc3c(c2)CCC(=O)N3C)s1` [Example 8, 6-[5-[[1-[2-(aminomethyl)-3,3-difluoro-allyl]-3-methyl-5-oxo-1,2,4-triazol-4-yl]methyl]-2-thienyl]-1-methyl-3,4-dihydroquinolin-2-one trifluoroacetate], the IC50 was 1 nM on recombinant human VAP-1, more than 100000 nM in test [1] (setting [4]), more than 100000 nM in test [2] and more than 100000 nM in test [3].

On to `CCn1cc(-c2cccc(Cn3nnn(CC(CN)=C(F)F)c3=O)c2)ccc1=O` [Example 34, 5-[3-[[4-[2-(aminomethyl)-3,3-difluoro-allyl]-5-oxo-tetrazol-1-yl]methyl]phenyl]-1-ethyl-pyridin-2-one trifluoroacetate], for which the IC50 on recombinant human VAP-1 is 0.6 nM; in test [1] (setting [4]), 12500 nM; in test [2] it was 53900 nM; in test [3] it was more than 100000 nM.

On to `Cc1ccc(-c2ccc3c(c2)CCC(=O)N3C)nc1-n1nnn(CC(CN)=C(F)F)c1=O` [Example 26, 6-[6-[4-[2-(aminomethyl)-3,3-difluoro-allyl]-5-oxo-tetrazol-1-yl]-5-methyl-2-pyridyl]-1-methyl-3,4-dihydroquinolin-2-one trifluoroacetate], for which the IC50 at recombinant human VAP-1 is 19 nM; in test [1], 4370 nM; in test [2] it was more than 100000 nM; in test [3], more than 100000 nM.

As to `CS(=O)(=O)c1ccc(-c2ccc(-n3nnn(CC(CN)=C(F)F)c3=O)cc2)cc1` [Example 16, 1-[2-(aminomethyl)-3,3-difluoro-allyl]-4-[4-(4-methylsulfonylphenyl)phenyl]tetrazol-5-one trifluoroacetate], the IC50 on recombinant human VAP-1 is 1.5 nM; in test [1] (setting [4]), 55 nM; in test [2], 260 nM; in test [3], more than 100000 nM.

`Cc1cc(-c2csc(-n3nnn(CC(CN)=C(F)F)c3=O)c2)cc2c1NC(=O)CC2` [Example 40, 6-[5-[4-[2-(aminomethyl)-3,3-difluoro-allyl]-5-oxo-tetrazol-1-yl]-3-thienyl]-8-methyl-3,4-dihydro-1H-quinolin-2-one trifluoroacetate]: the IC50 on recombinant human VAP-1 stood at 0.4 nM; in test [1] (setting [4]), 1.6 nM; in test [2], 123 nM; in test [3] it was 56100 nM.

In the case of `Cc1cc(-c2ccc(Cn3nnn(CC(CN)=C(F)F)c3=O)s2)cc2c1NC(=O)CC2` [Example 45, 6-[5-[[4-[2-(aminomethyl)-3,3-difluoro-allyl]-5-oxo-tetrazol-1-yl]methyl]-2-thienyl]-8-methyl-3,4-dihydro-1H-quinolin-2-one trifluoroacetate], the IC50 at recombinant human VAP-1 was 0.6 nM; in test [1] (setting [4]), 1870 nM; in test [2] it was 7210 nM; in test [3] it was 49200 nM.

A word on the IC50: it is the point on the concentration scale where inhibition reaches its midpoint.
